Drawing on PubChem BioAssay (NCI), this text covers TGI and GI50 for 26 compounds.

Experiment in all cases: NCI tumour cell line growth inhibition, 48 h
The test system of assay [1] is DMS 273 small cell lung.
Assay [2] has as its system LXFL 529 NSCLC.
The test system of assay [3] is M19-MEL melanoma.
Assay [4] has as its system RXF-631 renal.
The subject of assay [5] is SNB-78 CNS.
Assay [6] deals with XF 498 CNS.
Assay [7] relates to MCF7 breast.
Assay [8] concerns MDA-N.
The subject of assay [9] is T-47D breast.
Assay [10] relates to P388 leukemia.
The test system of assay [11] is P388/ADR leukemia.
Assay [12] concerns SN12K1 renal.

Values joined by “and” are separate entries in the source; they are usually repeats but may differ in a detail not shown here. Equal entries are not always repeated.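 Step 1: Grow cells in 96-well plates. Step 2: Expose to compound for 48 hours at 5 concentrations. Step 3: Interpolate endpoints linearly; if unreached, use highest concentration. The concentration for 50% growth inhibition is given as GI50. The concentration for full growth arrest is given as TGI.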

On to `O=C(O)c1cc(Cl)cc(NC(=O)C(Cl)Cl)c1Cl`, for which the TGI in assay [1], in assay [2], in [3], in assay [4], in assay [5] and in [6] was over 100 µM throughout.

`c1ccc2c(c1)CCCc1cc3ccccc3nc1-2`: the TGI in [2], in assay [3], in assay [5] and in assay [6] was over 100 µM in each case.

Consider `O=C(CCCCCCCCCCc1ccccc1)c1c(O)cccc1O`, for which the TGI in assay [1] is 34 µM; in assay [2], 34.7 µM; in assay [3], 42.7 µM; in assay [4], 85.4 µM; in assay [5], over 100 µM; in assay [6] it was 40.1 µM.

As to `N#Cc1c2c(c(N=[N+]=[N-])n3c1nc1ccccc13)CCCC2`, the TGI is 6.52 µM in assay [1], 6.1 µM in assay [3], 11.5 µM in assay [5] and 3.13 µM in assay [6].

For the compound `Cc1cc(N(CCC#N)S(=O)(=O)c2ccccc2)ccc1C=O`, the TGI in assay [1], in [2], in [4] and in assay [5] was over 100 µM throughout.

As to `COc1cc2ccn3c4cc(OC)c(OC)cc4cc3c2cc1OC`, the TGI in assay [2], in assay [3], in [5] and in assay [6] was over 100 µM in each case.

`CC1CCC(O)C(C(O)CC2CC(=O)N(C)C(=O)C2)C1` (stereo unspecified): the TGI in [1], in assay [2], in assay [3], in assay [4], in assay [5] and in assay [6] was over 100 µM in each case.

For `Clc1ccc2c(Cl)ncnc2c1`, the TGI in [1], in [3] and in assay [6] was over 100 µM each time.

As to `Brc1ccc2c(c1)C1(c3cc(Br)ccc3-2)c2cc(Br)ccc2-c2ccc(Br)cc21`, the TGI in assay [1], in assay [2], in assay [3], in assay [4], in assay [5] and in assay [6] was over 100 µM throughout.

On to `CC1=CC2=C(C)C3(CC3)[C@@](C)(O)C(=O)C2=C1`, for which the TGI was 0.696 µM in [1]; 0.783 µM in [2]; 0.732 µM in assay [3]; over 0.631 µM in assay [5]; 0.341 µM in assay [6].

With `Cn1c(=O)c2c3oc(=O)cc(O)c3c(=O)n3c4ccccc4n(c1=O)c23`, the TGI in assay [1] is over 100 µM; in assay [2], over 100 µM; in [3], over 100 µM; in assay [4], over 100 µM; in assay [5], over 100 µM; in [6], 68 µM.

As for `COC(=O)C(CC=O)C(=O)C(=O)Nc1cccc(C(F)(F)F)c1` (stereo unspecified), the TGI in assay [2], in assay [3], in [4], in [5] and in [6] was over 100 µM in each case.

Take `Oc1cc2cc(-c3ccccc3)[nH]c2c2ccccc12`: the TGI is 2.06 µM in [1]; over 100 µM in assay [2]; 28.9 µM in assay [3]; over 89.8 µM in assay [4]; over 100 µM in assay [5]; 25.9 µM in assay [6].

With `COc1ccc([Se]c2ccc(OC)cc2OC)c(OC)c1`, the TGI in assay [1] was 17.6 µM; in assay [2], over 100 µM; in [3], 87.1 µM; in [4] it was over 100 µM; in assay [5] it was 96.6 µM; in assay [6], over 100 µM.

For the compound `Cc1cc(CS(=O)(=O)/C=C/c2ccccc2[N+](=O)[O-])c(CS(=O)(=O)/C=C/c2ccccc2[N+](=O)[O-])cc1C`, the TGI in assay [1] is over 100 µM; in assay [2], over 100 µM; in assay [3], over 100 µM; in [7], over 100 µM; in assay [8] it was 99.7 µM; in [5] it was 66.2 µM. Moreover, the TGI in assay [9] is over 100 µM; in assay [6], 38.3 µM.

As to `CC(=O)NC1C(OCc2ccccc2)OC(COC(=O)CCCCCCCCCCNC(=O)c2cccc3c(=O)c4ccccc4[nH]c23)C(O)C1OC(C)C(=O)NC(C)C(=O)NC(CCC(N)=O)C(N)=O` (stereo unspecified), the TGI in [1] is over 100 µM; in [2] it was over 100 µM; in assay [3] it was over 100 µM; in assay [4] it was 43.8 µM; in assay [5] it was over 100 µM; in [6], over 100 µM.

Regarding `CC1OC(=O)N(CCCC=C2SCCCS2)C1=O` (stereo unspecified), the TGI in assay [1], in assay [2], in assay [3], in assay [5] and in assay [6] was over 100 µM throughout.

Turning to `O=C(CCCCCCCCC(=O)OCC1OC(n2cnc3c(=O)[nH]cnc32)C(O)C1O)OCC1OC(n2cnc3c(=O)[nH]cnc32)C(O)C1O` (stereo unspecified), the TGI in assay [1], in assay [3], in assay [5] and in assay [6] was over 100 µM each time.

Take `O=C1c2c(O)cccc2C(C(=O)CCCCC(=O)C2c3cccc(O)c3C(=O)c3c(O)cccc32)c2cccc(O)c21`: the TGI in [1] was 4.51 µM; in assay [2] it was 1.01 µM and 1.95 µM; in assay [7] it was 6.18 µM; in assay [8] it was 3.77 µM; in assay [4], 3.61 µM and 2.81 µM; in assay [5], 1.23 µM and 5.93 µM. Further, the TGI was determined as 0.919 µM in [9] and 1.18 µM in [6]. Besides, the GI50 is 1.04 µM in assay [2], 1.36 µM in assay [4] and 1.97 µM in assay [5].

Take `Cc1nnc2n1N=C(CC(=O)c1ccc(O)cc1O)CN2N`: the TGI in assay [1], in [2], in assay [3], in assay [4] and in assay [5] was over 100 µM in each case.

On to `S=C(Nc1ccccc1)Nc1[nH]c(=S)sc1-c1nc2ccccc2[nH]1`, for which the TGI in [1], in [2], in assay [3], in assay [4] and in assay [5] was over 100 µM each time.

For the compound `CC(C)c1ccc(/C=C(\NC(=O)c2ccccc2)c2nc3ccccc3[nH]2)cc1`, the TGI in [1], in assay [2], in assay [3], in assay [4], in [5] and in assay [6] was over 100 µM each time.

Turning to `COc1ccc(S(=O)(=O)N/N=C/C(=O)O)cc1`, the TGI in assay [1] was over 1200 µM; in [3] it was over 1250 µM; in assay [7], over 1210 µM; in assay [8], over 1200 µM; in assay [10] it was 787 µM; in assay [11], 721 µM. In addition, the TGI in [12] is over 1250 µM; in assay [5] it was over 1250 µM; in assay [9], over 1250 µM; in [6], over 1080 µM.

Regarding `CC1=C(C#N)C(N)=C2C(C)=C(C#N)C(N)=C12`, the TGI in assay [1], in assay [2], in assay [3], in [5] and in assay [6] was over 100 µM in each case.

Take `C/C(=N\NS(=O)(=O)c1ccc(C)cc1)c1ccc[n+]([O-])n1`: the TGI in assay [1], in [2], in assay [3] and in [6] was over 100 µM each time.

As to `CCOC(=O)c1cnc2[nH]c(=O)c3ccccc3n2c1=O`, the TGI in assay [1], in assay [2], in [3], in [4], in [5] and in assay [6] was over 100 µM throughout.
